How the values were obtained:
[1] = biological target: T1, BPSS2242 (Burkholderia pseudomallei, UniProt Q63I27)
[2] = biological target: T1, BPSS2242; remark: listed apart in the source

T1 sequence (Q63I27 1-271 limits assumed): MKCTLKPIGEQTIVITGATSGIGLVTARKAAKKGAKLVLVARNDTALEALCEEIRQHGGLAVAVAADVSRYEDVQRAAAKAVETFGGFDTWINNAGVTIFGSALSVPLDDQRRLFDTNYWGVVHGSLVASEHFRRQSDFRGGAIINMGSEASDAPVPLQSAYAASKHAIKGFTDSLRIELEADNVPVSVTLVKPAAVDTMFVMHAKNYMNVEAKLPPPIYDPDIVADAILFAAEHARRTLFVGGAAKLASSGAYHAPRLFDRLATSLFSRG

Compound	Tm [1] [°C]	NADPH oxidation at 340 nm [2]
NC(=O)C1=CN([C@@H]2O[C@H](COP(=O)(O)OP(=O)(O)OC[C@H]3O[C@@H](n4cnc5c(N)ncnc54)[C@H](OP(=O)(O)O)[C@@H]3O)[C@@H](O)[C@H]2O)C=CC1 [NADPH]	55.23	
CC(=O)C=O [methylglyoxal]		BPSS2242 exhibited reductase activity toward diacetyl and methylglyoxal when NADPH was used
